Assay results from ChEMBL document CHEMBL1201862, “PubChem BioAssay data set” (2004).
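These data come from cells grown in 96-well plates and exposed to compound for 48 hours at five concentrations. GI50 = concentration required for 50% inhibition of growth.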 Activity calls are given as the source filed them. Rule as the data show it: active = GI50 up to about 1.1 µM and inactive = higher.

How the values were obtained:
Experiment in all cases: DTP human tumour cell line panel, 48 h
SF-539 = system: SF-539
KM12 = system: KM12
RPMI-8226 = system: RPMI-8226
ACHN = system: ACHN
UACC-62 = system: UACC-62
CAKI-1 = system: CAKI-1
UO-31 = system: UO-31
K562 = system: K562
NCI-H460 = system: NCI-H460
TK-10 = system: TK-10
OVCAR-8 = system: OVCAR-8
A498 = system: A498
SNB-75 = system: SNB-75
SK-MEL-28 = system: SK-MEL-28
NCI-H226 = system: NCI-H226
HL-60 = system: HL-60

Measured: GI50

COc1cccc(NC(=O)C(=O)C(C(C)=O)c2nc3ccc(Cl)cc3nc2O)c1 (stereo unspecified)
inactive: SF-539 > 100 µM | KM12 > 100 µM | RPMI-8226 > 100 µM | ACHN > 100 µM | UACC-62 > 100 µM | CAKI-1 > 100 µM | UO-31 > 100 µM | K562 > 100 µM | NCI-H460 > 100 µM | TK-10 > 100 µM | OVCAR-8 > 100 µM | A498 > 100 µM | SNB-75 54.7 µM | SK-MEL-28 > 100 µM | NCI-H226 > 100 µM | HL-60 > 100 µM

Nc1ncnc2c1nnn2C1C=C(CO)C(O)C1O (stereo unspecified)
inactive: SF-539 > 85.3 µM | KM12 36.6 µM | RPMI-8226 20.3 µM | ACHN > 53.5 µM | UACC-62 > 100 µM | CAKI-1 74 µM | UO-31 42.5 µM | K562 40.8 µM | NCI-H460 40.8 µM | TK-10 > 92.5 µM | OVCAR-8 39.4 µM | A498 > 100 µM | SNB-75 30.9 µM | SK-MEL-28 65.3 µM | NCI-H226 > 100 µM | HL-60 12.1 µM

O=C(/N=c1/[nH]/c(=N/C(=O)c2ccccc2)ss1)c1ccccc1
inactive: SF-539 12.9 µM | KM12 27.7 µM | RPMI-8226 6.35 µM | ACHN 13.8 µM | UACC-62 > 10 µM | CAKI-1 30.3 µM | UO-31 18.5 µM | K562 20.4 µM | NCI-H460 16.6 µM | TK-10 26.1 µM | OVCAR-8 27.3 µM | A498 23.4 µM | SNB-75 38.6 µM | SK-MEL-28 23.9 µM | NCI-H226 38.8 µM | HL-60 14.7 µM

O=C1CCC(=O)c2sccc2N1
inactive: SF-539 > 100 µM | KM12 > 100 µM | RPMI-8226 > 100 µM | ACHN > 100 µM | CAKI-1 > 100 µM | UO-31 > 100 µM | K562 > 100 µM | NCI-H460 > 100 µM | TK-10 > 100 µM | OVCAR-8 > 100 µM | A498 > 100 µM | SNB-75 > 100 µM | SK-MEL-28 > 100 µM | NCI-H226 > 100 µM | HL-60 > 100 µM

CC(C)(c1ccc(C=O)o1)c1ccc(C(C)(C)c2ccc(C=O)o2)o1
inactive: SF-539 > 100 µM | KM12 > 100 µM | ACHN > 100 µM | CAKI-1 > 100 µM | K562 > 100 µM | NCI-H460 > 100 µM | TK-10 > 100 µM | OVCAR-8 > 100 µM | A498 > 100 µM | SK-MEL-28 > 100 µM | NCI-H226 > 100 µM | HL-60 > 100 µM

O=C(C(=O)c1ccc(Cc2ccc(C(=O)C(=O)c3ccccc3)cc2)cc1)c1ccccc1
inactive: SF-539 > 100 µM | KM12 > 100 µM | ACHN > 100 µM | UACC-62 > 100 µM | CAKI-1 > 100 µM | UO-31 > 100 µM | K562 > 100 µM | NCI-H460 > 100 µM | TK-10 > 100 µM | OVCAR-8 > 100 µM | A498 > 100 µM | SNB-75 > 100 µM | SK-MEL-28 > 100 µM | NCI-H226 > 100 µM | HL-60 > 100 µM

N#CCc1ccc(C(C#N)/C(CCCC(=O)Nc2cccc([N+](=O)[O-])c2)=N/NC(N)=S)cc1 (stereo unspecified)
inactive: SF-539 > 100 µM | KM12 > 100 µM | RPMI-8226 > 100 µM | ACHN > 100 µM | UACC-62 44.1 µM | CAKI-1 > 100 µM | UO-31 > 100 µM | K562 81.7 µM | NCI-H460 > 100 µM | TK-10 > 100 µM | A498 > 100 µM | SNB-75 > 100 µM | SK-MEL-28 > 100 µM | NCI-H226 > 100 µM | HL-60 > 100 µM

N#CC(C#N)C(c1ccccc1)c1ccccc1
inactive: SF-539 > 100 µM | KM12 > 100 µM | RPMI-8226 > 100 µM | ACHN > 100 µM | UACC-62 > 100 µM | CAKI-1 > 100 µM | UO-31 > 100 µM | K562 91 µM | NCI-H460 > 100 µM | TK-10 > 100 µM | OVCAR-8 > 100 µM | A498 > 100 µM | SK-MEL-28 > 100 µM | NCI-H226 > 100 µM | HL-60 > 100 µM

CC(=O)c1cccc(N2COC(C)(C)c3nc4ccccc4n3C2)c1
inactive: SF-539 > 100 µM | KM12 > 100 µM | RPMI-8226 > 100 µM | ACHN > 100 µM | UACC-62 > 100 µM | UO-31 > 100 µM | K562 > 100 µM | NCI-H460 > 100 µM | TK-10 > 100 µM | OVCAR-8 > 100 µM | A498 > 100 µM | SNB-75 > 100 µM | SK-MEL-28 > 100 µM | NCI-H226 > 100 µM | HL-60 > 100 µM

COc1ccc2c(c1)C=C(C(C)(C)C)NS2(=O)=O
inactive: SF-539 > 100 µM | KM12 > 100 µM | ACHN > 100 µM | UACC-62 > 100 µM | CAKI-1 > 100 µM | UO-31 > 100 µM | K562 > 100 µM | NCI-H460 > 100 µM | TK-10 > 100 µM | OVCAR-8 > 100 µM | A498 > 100 µM | SNB-75 > 100 µM | SK-MEL-28 > 100 µM | NCI-H226 > 100 µM | HL-60 > 100 µM

CC1(C)COC(c2cccc3c2C(=O)c2cccc(Cl)c2-3)=N1
inactive: SF-539 68.7 µM | KM12 47.9 µM | RPMI-8226 31.7 µM | ACHN 51.1 µM | UACC-62 51.5 µM | CAKI-1 55 µM | UO-31 27.1 µM | K562 33.7 µM | NCI-H460 50.4 µM | TK-10 41.7 µM | OVCAR-8 38.4 µM | A498 32.1 µM | SNB-75 41.7 µM | SK-MEL-28 58.7 µM | HL-60 28.4 µM

Cc1cc(NCCCCCCNc2cc(C)nc3ccc(Cl)cc23)c2cc(Cl)ccc2n1
inactive: SF-539 15.9 µM | KM12 17.2 µM | RPMI-8226 47.4 µM | ACHN 33 µM | UACC-62 19.5 µM | CAKI-1 33 µM | UO-31 23.5 µM | K562 2.49 µM | NCI-H460 14.8 µM | TK-10 27 µM | OVCAR-8 18.5 µM | A498 > 100 µM | SNB-75 17.4 µM | SK-MEL-28 17.2 µM | NCI-H226 > 100 µM | HL-60 7.4 µM

CN(C)c1ccc(-c2nc(N)nc3c2CCCC3)cc1
inactive: SF-539 > 100 µM | KM12 54 µM | RPMI-8226 30 µM | ACHN 26.4 µM | UACC-62 44.7 µM | CAKI-1 52.1 µM | UO-31 41.5 µM | K562 29.3 µM | NCI-H460 65.2 µM | TK-10 49.1 µM | OVCAR-8 74.5 µM | A498 35.6 µM | SNB-75 42 µM | SK-MEL-28 61.8 µM | NCI-H226 51.3 µM | HL-60 29.3 µM

CCOC(=O)C1=NC(c2ccccc2)(c2ccccc2)OC1=C(Cl)Cl
inactive: SF-539 > 100 µM | KM12 94 µM | RPMI-8226 19.1 µM | ACHN 50.4 µM | UACC-62 99.8 µM | CAKI-1 > 100 µM | UO-31 65 µM | K562 32 µM | NCI-H460 70.6 µM | TK-10 > 100 µM | OVCAR-8 > 100 µM | A498 > 100 µM | SNB-75 > 100 µM | SK-MEL-28 > 100 µM | NCI-H226 > 100 µM | HL-60 11.9 µM

CCOc1ccc(NC(=O)C2=C(C)NC(C)=C(C(=O)Nc3ccc(OCC)cc3)C2c2ccccc2)cc1
inactive: SF-539 > 100 µM | KM12 41.7 µM | RPMI-8226 49.9 µM | ACHN 74.6 µM | CAKI-1 > 100 µM | UO-31 29.2 µM | K562 38.5 µM | NCI-H460 > 100 µM | TK-10 > 100 µM | OVCAR-8 > 100 µM | A498 > 100 µM | SNB-75 95.7 µM | SK-MEL-28 > 100 µM | NCI-H226 > 100 µM | HL-60 29.9 µM

CC1(C)CCC[C@@]2(C)C1CCC1(C)C(CCc3ccoc3)/C(=C/OS(=O)(=O)O)CCC12 (stereo partly specified)
inactive: SF-539 > 100 µM | KM12 > 100 µM | RPMI-8226 33.7 µM | ACHN > 100 µM | UACC-62 > 100 µM | CAKI-1 > 100 µM | UO-31 72.3 µM | K562 31.2 µM | NCI-H460 > 100 µM | TK-10 > 100 µM | OVCAR-8 > 100 µM | A498 > 100 µM | SNB-75 > 100 µM | SK-MEL-28 58.7 µM | NCI-H226 54.8 µM | HL-60 37.1 µM

CCCc1c(C(=O)OCC)[nH]c(C(=O)CCC(=O)c2[nH]c(C(=O)OCC)c(CCC)c2C(=O)OCC)c1C(=O)OCC
inactive: SF-539 > 100 µM | KM12 > 100 µM | RPMI-8226 > 100 µM | ACHN > 100 µM | UACC-62 > 100 µM | CAKI-1 > 100 µM | UO-31 > 100 µM | K562 > 100 µM | NCI-H460 > 100 µM | TK-10 > 100 µM | OVCAR-8 > 100 µM | A498 > 100 µM | SNB-75 19.1 µM | SK-MEL-28 > 100 µM | NCI-H226 > 100 µM | HL-60 > 100 µM

O=C(Cc1ccccc1)NN1C(=O)C(Cl)C1c1ccccc1Cl (stereo unspecified)
inactive: SF-539 > 100 µM | KM12 > 79.3 µM | RPMI-8226 19.5 µM | ACHN > 100 µM | UACC-62 68.5 µM | CAKI-1 > 60.3 µM | UO-31 > 100 µM | K562 33.7 µM | NCI-H460 76 µM | TK-10 > 100 µM | OVCAR-8 > 74 µM | A498 > 100 µM | SNB-75 51.3 µM | SK-MEL-28 > 100 µM | NCI-H226 > 100 µM | HL-60 30.1 µM
